Test results taken from paper PMC7044277 (Nature Communications, 2020).
Several values for one entry are separate records, joined by “and”; a condition that tells them apart may be missing. Equal values may be shown once.

Assays:
Type in all cases: cell-based
320 non-olfactory GPCRs [1] = biological target: T1, 320 non-olfactory GPCRs (Homo sapiens, UniProt Q9HBW9)
T1 construct: expressed in transfected cells; host or cells: HTLA cells

320 non-olfactory GPCRs [2] = biological target: T2, 320 non-olfactory GPCRs (Homo sapiens, UniProt P29275)
T2 construct: expressed in transfected cells; host or cells: HTLA cells

320 non-olfactory GPCRs [3] = biological target: T3, 320 non-olfactory GPCRs (Homo sapiens, UniProt P47871)
T3 construct: expressed in transfected cells; host or cells: HTLA cells

320 non-olfactory GPCRs [4] = biological target: T4, 320 non-olfactory GPCRs (Homo sapiens, UniProt P32245); details: receptor MC4R; replicate values, Fig_4g
T4 construct: expressed in transfected cells; host or cells: HTLA cells
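Wherever Fold of Basal is given: compound tested at 1 µM final concentration.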
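Wherever GPCRome agonism screen response is given: fold over basal response of each receptor without drug.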

T2 sequence (P29275 whole entry): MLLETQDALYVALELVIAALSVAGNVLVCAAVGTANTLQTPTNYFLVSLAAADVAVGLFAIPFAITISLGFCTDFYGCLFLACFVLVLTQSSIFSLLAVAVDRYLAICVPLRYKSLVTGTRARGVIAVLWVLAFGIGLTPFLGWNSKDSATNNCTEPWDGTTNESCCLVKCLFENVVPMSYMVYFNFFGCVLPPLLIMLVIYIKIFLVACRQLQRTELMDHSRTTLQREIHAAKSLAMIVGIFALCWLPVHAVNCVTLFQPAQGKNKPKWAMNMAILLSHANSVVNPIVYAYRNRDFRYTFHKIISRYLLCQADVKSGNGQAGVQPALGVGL
T4 sequence (P32245 whole entry): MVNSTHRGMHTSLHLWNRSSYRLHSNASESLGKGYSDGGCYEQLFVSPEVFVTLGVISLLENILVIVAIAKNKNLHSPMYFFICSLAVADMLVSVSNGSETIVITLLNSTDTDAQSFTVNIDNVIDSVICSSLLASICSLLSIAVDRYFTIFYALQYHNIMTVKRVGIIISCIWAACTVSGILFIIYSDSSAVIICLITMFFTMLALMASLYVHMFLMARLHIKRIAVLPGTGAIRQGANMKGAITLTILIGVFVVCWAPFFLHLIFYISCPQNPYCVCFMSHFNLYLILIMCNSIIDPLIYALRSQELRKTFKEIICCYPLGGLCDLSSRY
T1 sequence (Q9HBW9 20-690): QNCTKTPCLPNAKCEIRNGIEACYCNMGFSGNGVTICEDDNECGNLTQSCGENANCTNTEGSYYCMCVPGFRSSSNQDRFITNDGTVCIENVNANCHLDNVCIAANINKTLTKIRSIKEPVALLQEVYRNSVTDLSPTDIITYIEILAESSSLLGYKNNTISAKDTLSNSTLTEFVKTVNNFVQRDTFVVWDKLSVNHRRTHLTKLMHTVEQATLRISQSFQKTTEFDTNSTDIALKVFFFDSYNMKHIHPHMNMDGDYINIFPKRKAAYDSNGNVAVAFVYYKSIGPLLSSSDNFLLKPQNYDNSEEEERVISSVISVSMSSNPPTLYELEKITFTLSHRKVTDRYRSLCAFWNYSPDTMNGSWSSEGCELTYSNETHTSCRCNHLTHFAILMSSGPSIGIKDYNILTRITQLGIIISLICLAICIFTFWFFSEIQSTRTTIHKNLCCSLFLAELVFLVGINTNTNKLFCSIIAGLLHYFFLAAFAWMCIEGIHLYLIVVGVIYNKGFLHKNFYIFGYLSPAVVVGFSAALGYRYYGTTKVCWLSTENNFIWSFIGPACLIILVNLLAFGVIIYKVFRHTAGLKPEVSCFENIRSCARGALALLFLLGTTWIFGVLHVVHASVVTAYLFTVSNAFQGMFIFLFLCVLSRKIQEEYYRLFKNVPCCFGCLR
T3 sequence (P47871 26-477): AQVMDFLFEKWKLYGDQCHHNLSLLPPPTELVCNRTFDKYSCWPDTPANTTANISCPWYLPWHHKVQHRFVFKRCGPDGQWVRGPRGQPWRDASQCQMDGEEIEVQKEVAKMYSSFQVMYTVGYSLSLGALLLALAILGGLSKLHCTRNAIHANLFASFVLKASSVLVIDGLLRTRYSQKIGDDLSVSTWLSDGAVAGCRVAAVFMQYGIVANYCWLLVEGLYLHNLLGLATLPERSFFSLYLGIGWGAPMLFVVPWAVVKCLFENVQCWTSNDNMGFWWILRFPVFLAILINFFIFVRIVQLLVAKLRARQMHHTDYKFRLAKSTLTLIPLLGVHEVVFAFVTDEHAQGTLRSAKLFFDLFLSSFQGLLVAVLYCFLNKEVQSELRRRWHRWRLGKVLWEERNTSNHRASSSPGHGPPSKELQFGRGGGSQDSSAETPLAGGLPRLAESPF

Compound: CCOc1cccc2cc(C(C)NCC3(O)CCCCC3)oc12 (stereo not shown) [O4LE6]
- Fold of Basal (320 non-olfactory GPCRs [1]): 1.158 and 1.093 and 1.161 and 0.9931
- Fold of Basal (320 non-olfactory GPCRs [2]): 1.3919 and 1.763 and 1.526 and 2.198
- Fold of Basal (320 non-olfactory GPCRs [3]): 1.104 and 0.7209 and 1.128 and 1.0533
- GPCRome agonism screen response (320 non-olfactory GPCRs [4]): 0.7124 and 0.7559 and 1.4135 and 1.293
